Test results published in patent US20240091162A1, “COMPOSITIONS AND METHODS FOR TREATING DEPRESSION AND ANXIETY” (THE TRUSTEES OF COLUMBIA UNIVERSITY IN THE CITY OF NEW YORK, priority 2021, published 2024).

Experiments:
[1] = in vivo FLX pharmacokinetic study and in vivo imaging of model drug distribution after delivery by microburs; details: after delivery by MBs
[2] = in vivo
[3] = release of nanoparticles / SSRI from microbur and mesoporous silica nanoparticles; assay type: physicochemical

Row | Compound | model drug distribution (in vivo imaging system) [1] | dispersion of FLX in the intestine [2] | FLX release profile from MB ([3]; MB with different structures) | release of SSRI from MSN ([3]; from a 42 nm-sized MSN)
1 | O=C1OC2(c3ccc(O)cc3Oc3cc(O)ccc32)c2ccccc21 [Fluorescein] | selective dispersion of drug in the gut |  |  | 
2 | CNCCC(Oc1ccc(C(F)(F)F)cc1)c1ccccc1 (stereo not shown) [Fluoxetine, fluoxetine] |  | local dispersion of FLX on small intestine epithelium | sustainable FLX release profile | controlled release
